“And” between values parts separate entries of the source, which are not always exact repeats. Equal values may be shown once.
How the values were obtained:
N. fowleri CYP51 [1] = target: T1, N. fowleri CYP51 (Naegleria fowleri, UniProt A0A6A5BCR7, E4K/I5A/S2A, form not given); details: read-out: IC50 (1 h reaction)
N. fowleri CYP51 [2] = target: T1, N. fowleri CYP51; assay type: biochemical; details: 0.5 μM P450, 60 s at 37 °C, sterol 3–50 μM

SMILES	IC50 (N. fowleri CYP51 [1])	Km (N. fowleri CYP51 [2])
O=C(N[C@@H](Cn1ccnc1)c1ccc(-c2ccc(F)cc2)cc1F)c1ccc(-c2nnc(-c3ccccc3)o2)cc1 [VFV, (R)-N-(1-(3,4’-difluoro-[1,1’-biphenyl]-4-yl)-2-(1H-imidazol-1-yl)-ethyl)-4-(5-phenyl-1,3,4-oxadiazol-2-yl)benzamide]	0.68 µM	–
O=C(N[C@@H](Cn1ccnc1)c1ccc(-c2ccc(F)cc2)cc1Cl)c1ccc(-c2nnc(-c3ccccc3)o2)cc1 [VFV-Cl, (R)-N-(1-(3-chloro-4’-fluoro-[1,1’-biphenyl]-4-yl)-2-(1H-imidazol-1-yl)ethyl)-4-(5-phenyl-1,3,4-oxadiazol-2-yl)benzamide]	5.9 µM and 5.94 µM	–
C[C@@H](c1nc(-c2ccc(C#N)cc2)cs1)[C@](O)(Cn1cncn1)c1cc(F)ccc1F [isavuconazole, reference compound]	0.96 µM	–
CC(C)=CCC[C@@H](C)[C@H]1CC[C@@]2(C)C3=C(CC[C@]12C)[C@@]1(C)CC[C@H](O)C(C)(C)[C@@H]1CC3 [lanosterol]	–	48 ± 10 µM
C=C(CC[C@@H](C)[C@H]1CC[C@@]2(C)C3=C(CC[C@]12C)[C@@]1(C)CC[C@H](O)[C@@H](C)[C@@H]1CC3)C(C)C [obtusifoliol]	–	8 ± 1 µM
